Experimental data published in US4861798A, “Lipoxygenase inhibitory compounds” (Bristol-Myers Company, priority 1987, dated 1989).
pIC50: −log10 of the molar value.

Columns and labels:
[1] = target: T1, Human Platelet 12-LPO (Homo sapiens, UniProt P18054); experiment: Inhibition of 12-LPO, human platelet; type: cell-based; details: @ 100 μM; read-out: % I Human Platelet 12-LPO
T1 construct: Human neutrophils and platelets were obtained from the blood of normal volunteers; endogenous in cells; host or cells: human platelets from blood of normal volunteers
T1 sequence (P18054 1-663): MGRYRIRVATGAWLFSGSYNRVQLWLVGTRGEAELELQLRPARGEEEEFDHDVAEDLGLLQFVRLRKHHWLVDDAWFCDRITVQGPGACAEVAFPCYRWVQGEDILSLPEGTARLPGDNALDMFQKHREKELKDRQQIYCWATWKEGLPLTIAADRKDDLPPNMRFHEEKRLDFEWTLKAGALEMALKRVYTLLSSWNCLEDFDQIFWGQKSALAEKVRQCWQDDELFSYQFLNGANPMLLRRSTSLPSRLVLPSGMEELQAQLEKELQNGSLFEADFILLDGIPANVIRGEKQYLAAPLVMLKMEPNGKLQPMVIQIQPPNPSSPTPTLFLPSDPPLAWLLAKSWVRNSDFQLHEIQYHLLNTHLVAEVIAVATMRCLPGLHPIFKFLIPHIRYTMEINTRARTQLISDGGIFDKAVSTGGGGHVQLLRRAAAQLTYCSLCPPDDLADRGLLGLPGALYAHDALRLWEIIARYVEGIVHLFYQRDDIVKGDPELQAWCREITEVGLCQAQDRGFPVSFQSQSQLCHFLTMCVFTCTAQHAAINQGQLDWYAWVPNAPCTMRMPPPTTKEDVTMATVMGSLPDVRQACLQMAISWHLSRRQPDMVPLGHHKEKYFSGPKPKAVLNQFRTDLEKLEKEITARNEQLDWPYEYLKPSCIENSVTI

[2] = target: T2, 5-lipoxygenase (Human Leukocyte/PMNL 5-LPO) (Homo sapiens, UniProt P09917); experiment: Inhibition of 5-lipoxygenase (5-HETE formation) in human neutrophil/platelet system; type: cell-based
T2 construct: Human neutrophils and platelets were obtained from the blood of normal volunteers; endogenous in cells; host or cells: human blood leukocytes (neutrophils) of normal volunteers, with 0.1 to 0.5 platelets per leukocyte
T2 sequence (P09917 1-674): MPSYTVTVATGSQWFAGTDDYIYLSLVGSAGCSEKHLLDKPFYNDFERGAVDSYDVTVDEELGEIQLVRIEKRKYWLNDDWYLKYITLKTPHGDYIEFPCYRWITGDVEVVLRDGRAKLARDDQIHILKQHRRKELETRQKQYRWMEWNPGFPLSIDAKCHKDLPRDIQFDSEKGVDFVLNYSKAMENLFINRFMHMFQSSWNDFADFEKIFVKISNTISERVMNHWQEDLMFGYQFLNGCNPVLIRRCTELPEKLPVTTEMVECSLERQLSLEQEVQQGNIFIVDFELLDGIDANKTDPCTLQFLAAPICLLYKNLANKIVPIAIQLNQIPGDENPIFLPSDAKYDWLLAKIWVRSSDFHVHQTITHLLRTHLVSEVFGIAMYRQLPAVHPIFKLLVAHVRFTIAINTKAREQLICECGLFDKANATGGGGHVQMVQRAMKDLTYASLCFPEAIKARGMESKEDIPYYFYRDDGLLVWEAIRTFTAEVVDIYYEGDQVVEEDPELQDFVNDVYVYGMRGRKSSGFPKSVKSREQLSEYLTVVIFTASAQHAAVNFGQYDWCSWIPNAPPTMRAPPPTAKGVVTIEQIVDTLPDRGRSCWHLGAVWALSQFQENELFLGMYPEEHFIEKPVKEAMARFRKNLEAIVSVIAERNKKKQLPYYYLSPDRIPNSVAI
Text: This test is a measure of the inhibition of the synthesis of lipoxygenase products generated by human neutrophils and platelets. The protocol is similar to that described in the article "Comparative Effects of Indomethacin, Acetylenic Acids, 15-HETE, NDGA and BW755C on the Metabolism of Arachidonic Acid in Human Leukocytes and Platelets", H. Solari, P. Braquet and P. Borgeat, Prost. Leuk. Med. 13, pp. 53-60, 1984.
Human neutrophils and platelets were obtained from the blood of normal volunteers. The blood was collected into tubes containing EDTA as an anticoagulant. The blood was centrifuged at 250×g for 15 minutes and the platelet rich plasma was removed. The cell fraction was mixed with an equal volume of 0.9% saline containing 10 mM dextrose and resuspended in Dulbecco's phosphate buffered saline (PBS) without Mg^++ and Ca^++ and was counted. The cell suspension was adjusted to give a leukocyte count of 2-3×10^7 cells/ml.
Test compounds were dissolved in ethanol and added to polypropylene tubes. To control tubes (drug-free) only ethanol was added. The ethanol was evaporated to dryness under a stream of argon and then 0.1 ml of the cell suspension (2-3×10^6 cells) was added. This mixture was pre-incubated for 5 minutes at 37° and then the reaction was initiated by addition of ^3 H-arachidonic acid, calcium ionophore (A23187), and calcium ion. The final concentration of each component was: arachidonic acid, 10 uM; A23187, […]; calcium ion, […]. After 5 minutes the incubations were stopped by addition of an equal volume of methanol. The tubes were spun at 11,000 g for 2 minutes to pellet the precipitated protein. The supernatant was analyzed by HPLC for 5-HETE. The formation of this product is indicative of 5-lipoxygenase activity. Test drugs were evaluated for their ability to inhibit 5-HETE formation. Percent inhibition of varying concentrations of test drugs was determined in duplicate by comparing the peak quantitation in the presence and absence (control) of drug. […] The IC50 values were calculated from log-dose response curves of pooled data from at least two experiments by linear regression analysis.
The activity was tested by the same method as in the previous example.
The enzyme inhibitory activity of these compounds was tested by the same method.

[3] = system: inflammatory mediators prostaglandin E2, LTB4 and TxB2; experiment: Carrageenan sponge implantation model, mediator production in exudate; type: in vivo, rat
Text: (§1) The carrageenan sponge implantation model is primarily used to measure the effect of antiinflammatory agents on cell infiltration. An acute inflammatory response is stimulated by the implantation of a small sponge beneath the skin of rats. The sponge normally contains an inflammatory stimulus such as carrageenan and produces a response which is characterized by infiltration of cells and accumulation of fluid. The number of cells in the exudate can be conveniently measured in the exudate fluid.
(§2) The compound of Example I was evaluated for its local effect on cell migration and mediator production in this model. For comparison, indomethacin and BW755C were also evaluated after local application. Polyester sponges were soaked in solutions of 0.5% carrageenan (in normal saline) which also contained 1% or 5% wt/vol of the test compound. The impregnated sponge was inserted through a small incision on the dorsal surface of a lightly anesthetized rat into a subcutaneous pocket formed by blunt dissection. The incision was then closed. The control treatment consisted of a sponge soaked in 0.5% carrageenan in normal saline. Animals were sacrificed 6 hours after sponge implantation. Sponges are dissected out an placed in heparinized saline. The number of infiltrating cells were determined using a coulter counter. The inflammatory mediators prostaglandin E2, LTB4 and TxB2 in the exudate were determined by radioimmunoassay.

[4] = target: T3, Human Platelet CO (Homo sapiens, UniProt P23219); experiment: Inhibition of CO, human platelet; type: cell-based; details: 95% confidence interval given for some
T3 construct: Human neutrophils and platelets were obtained from the blood of normal volunteers; endogenous in cells; host or cells: human platelets from blood of normal volunteers
T3 sequence (P23219 24-599): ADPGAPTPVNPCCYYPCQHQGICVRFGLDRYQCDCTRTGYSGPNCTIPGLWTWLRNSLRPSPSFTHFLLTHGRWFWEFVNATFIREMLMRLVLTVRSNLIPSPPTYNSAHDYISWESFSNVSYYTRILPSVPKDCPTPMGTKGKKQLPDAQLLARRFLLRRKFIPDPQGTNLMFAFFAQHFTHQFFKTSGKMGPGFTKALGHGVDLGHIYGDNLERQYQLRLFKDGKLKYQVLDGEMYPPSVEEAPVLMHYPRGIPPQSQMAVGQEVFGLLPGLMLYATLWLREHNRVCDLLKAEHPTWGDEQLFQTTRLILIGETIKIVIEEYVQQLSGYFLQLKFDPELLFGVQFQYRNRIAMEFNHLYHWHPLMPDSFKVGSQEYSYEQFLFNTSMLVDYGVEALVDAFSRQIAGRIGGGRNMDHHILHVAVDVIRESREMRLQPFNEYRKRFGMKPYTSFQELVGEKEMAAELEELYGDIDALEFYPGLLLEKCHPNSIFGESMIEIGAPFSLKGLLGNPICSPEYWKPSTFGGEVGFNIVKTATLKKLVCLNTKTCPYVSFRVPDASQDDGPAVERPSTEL

[5] = system: cell infiltration (leukocytes); experiment: Carrageenan sponge implantation model, cell infiltration; type: in vivo, rat; details: for Leukocyte No.: 6 h
Text: as §1, §2

[6] = Experiment 1, 1% compound, control 3.6 ± 1.3
[7] = Experiment 1, 1% compound, control 10.8 ± 3.7
[8] = Experiment 1, 1% compound, control 11.8 ± 4.1

Structure (SMILES) | inhibition at 100 µM [1] [%] | % Inhibition at 100 μm ([2]; 4-alkoxyphenyl compounds) [%] | pIC50 ([2]; FIG. 1 table, 95% confidence interval, read-out: IC50 Human PMNL 5-LPO) | TXB2 [3, 6] [ng/ml Exudate] | PGE2 [3, 7] [ng/ml Exudate] | LTB4 [3, 8] [ng/ml Exudate] | LTB4 ([3]; Experiment 2, 5% compound, control 5.5 ± 0.9) [ng/ml Exudate] | TXB2 ([3]; Experiment 2, 5% compound, control 19.2 ± 1.9) [ng/ml Exudate] | PGE2 ([3]; Experiment 2, 5% compound, control 137.6 ± 13.1) [ng/ml Exudate] | pIC50 [4] | Leukocyte No. ([5]; Experiment 1, 0.5% carrageenan plus 1% compound in sponge, control 10.8 ± 1.5) | Leukocyte No. ([5]; Experiment 2, 0.5% carrageenan plus 5% compound in sponge, control 33.0 ± 3.8) | reduction of cell infiltration ([5]; dosed at 1%) | reduction of cell infiltration ([5]; dosed at 5%) [%] | activity in carrageenan sponge implantation model ([5]; in words)
O=C(CCCCCCCCc1ccccc1)NO [Compound 1, 9-Phenylnonanohydroxamic Acid] | 33 | 98.3 | 5.24 | 0.3 ± 0.1 | 5.7 ± 0.9 | 2.1 ± 1.0 | 2.4 ± 0.9 | 4.1 ± 0.9 | 21.3 ± 4.1 | 4.82 | 6.9 ± .7 cells/ml (× 10^-6) | < 1 cells/ml (× 10^-6) | 36.1% | 96.1 | found to have activity in this in vivo animal system
COc1ccc2c(c1)c(CC(=O)O)c(C)n2C(=O)c1ccc(Cl)cc1 [Indomethacin, reference compound] |  |  |  | < 0.5 | 1.9 ± 0.3 | 1.6 ± 0.5 |  |  |  |  |  |  | did not significantly reduce cell infiltration |  | 
